The values below come from paper PMC8042122 (Scientific Reports, 2021).

In this experiment the test system is F. graminearum CBS185.32 strain. The experiment is classed as cell-based, Fusarium graminearum. The following applies: for Impact of methyl caps on the activity of TC3 (ability to inhibit TCTB production): 50 µM.

On to “CGNFLKRTC(CH3)ICVKK (disulfide) [TC3-CH3-2Ox, TC3-CH3-2 oxidized, cyclized through the non-capped Cys]”, for which the “Impact of methyl caps on the activity of TC3 (ability to inhibit TCTB production)” value is on record as “most negative impact”.
As to “CGNFLKRTCIC(CH3)VKK (disulfide) [TC3-CH3-3Ox, TC3-CH3-3 oxidized, cyclized through the non-capped Cys]”, the “Impact of methyl caps on the activity of TC3 (ability to inhibit TCTB production)” value is listed as “most negative impact”.
With “CGNFLTRTCICVKK [TC3-K6T, TC3 with Lys6 substituted by Thr]”, the “Inhibitory activity on TCTB production” value is on record as “lowest inhibitory activity”.
